Reference: patent US9884828B2, “Substituted cinnolines as inhibitors of LRRK2 kinase activity” (Imago Pharmaceuticals, Inc., priority 2011, dated 2018)

Biological target: recombinant GST-LRRK2 (wild-type) (Homo sapiens (Human), UniProt Q5S007)
Assay: LRRK2 TR-FRET peptide assay (in vitro kinase activity), wild-type
Type: biochemical
Conditions: 100 μM ATP, 100 nM biotin-LRRKtide substrate, 10 nM kinase, 60 minutes at room temperature
Method: Compounds as described herein (compounds of Formula I, e.g., compounds of the above Examples) are tested for their in vitro kinase activities using various LRRK2 (including LRRK2 G2019S mutant) assays. […] Serially diluted compounds (1% DMSO as co-solvent) were pre-incubated with recombinant GST-LRRK2 (wild-type, or G2019S mutant, Invitrogen) for 15 minutes at room temperature in 384-well Corning black plates. […] The inhibition of each well was calculated using the control and background readings for that plate. IC50 values were determined from dose-response curves using eight concentrations from the serial dilution of the test compounds.

Sequence of recombinant GST-LRRK2 (wild-type) (Q5S007 whole entry): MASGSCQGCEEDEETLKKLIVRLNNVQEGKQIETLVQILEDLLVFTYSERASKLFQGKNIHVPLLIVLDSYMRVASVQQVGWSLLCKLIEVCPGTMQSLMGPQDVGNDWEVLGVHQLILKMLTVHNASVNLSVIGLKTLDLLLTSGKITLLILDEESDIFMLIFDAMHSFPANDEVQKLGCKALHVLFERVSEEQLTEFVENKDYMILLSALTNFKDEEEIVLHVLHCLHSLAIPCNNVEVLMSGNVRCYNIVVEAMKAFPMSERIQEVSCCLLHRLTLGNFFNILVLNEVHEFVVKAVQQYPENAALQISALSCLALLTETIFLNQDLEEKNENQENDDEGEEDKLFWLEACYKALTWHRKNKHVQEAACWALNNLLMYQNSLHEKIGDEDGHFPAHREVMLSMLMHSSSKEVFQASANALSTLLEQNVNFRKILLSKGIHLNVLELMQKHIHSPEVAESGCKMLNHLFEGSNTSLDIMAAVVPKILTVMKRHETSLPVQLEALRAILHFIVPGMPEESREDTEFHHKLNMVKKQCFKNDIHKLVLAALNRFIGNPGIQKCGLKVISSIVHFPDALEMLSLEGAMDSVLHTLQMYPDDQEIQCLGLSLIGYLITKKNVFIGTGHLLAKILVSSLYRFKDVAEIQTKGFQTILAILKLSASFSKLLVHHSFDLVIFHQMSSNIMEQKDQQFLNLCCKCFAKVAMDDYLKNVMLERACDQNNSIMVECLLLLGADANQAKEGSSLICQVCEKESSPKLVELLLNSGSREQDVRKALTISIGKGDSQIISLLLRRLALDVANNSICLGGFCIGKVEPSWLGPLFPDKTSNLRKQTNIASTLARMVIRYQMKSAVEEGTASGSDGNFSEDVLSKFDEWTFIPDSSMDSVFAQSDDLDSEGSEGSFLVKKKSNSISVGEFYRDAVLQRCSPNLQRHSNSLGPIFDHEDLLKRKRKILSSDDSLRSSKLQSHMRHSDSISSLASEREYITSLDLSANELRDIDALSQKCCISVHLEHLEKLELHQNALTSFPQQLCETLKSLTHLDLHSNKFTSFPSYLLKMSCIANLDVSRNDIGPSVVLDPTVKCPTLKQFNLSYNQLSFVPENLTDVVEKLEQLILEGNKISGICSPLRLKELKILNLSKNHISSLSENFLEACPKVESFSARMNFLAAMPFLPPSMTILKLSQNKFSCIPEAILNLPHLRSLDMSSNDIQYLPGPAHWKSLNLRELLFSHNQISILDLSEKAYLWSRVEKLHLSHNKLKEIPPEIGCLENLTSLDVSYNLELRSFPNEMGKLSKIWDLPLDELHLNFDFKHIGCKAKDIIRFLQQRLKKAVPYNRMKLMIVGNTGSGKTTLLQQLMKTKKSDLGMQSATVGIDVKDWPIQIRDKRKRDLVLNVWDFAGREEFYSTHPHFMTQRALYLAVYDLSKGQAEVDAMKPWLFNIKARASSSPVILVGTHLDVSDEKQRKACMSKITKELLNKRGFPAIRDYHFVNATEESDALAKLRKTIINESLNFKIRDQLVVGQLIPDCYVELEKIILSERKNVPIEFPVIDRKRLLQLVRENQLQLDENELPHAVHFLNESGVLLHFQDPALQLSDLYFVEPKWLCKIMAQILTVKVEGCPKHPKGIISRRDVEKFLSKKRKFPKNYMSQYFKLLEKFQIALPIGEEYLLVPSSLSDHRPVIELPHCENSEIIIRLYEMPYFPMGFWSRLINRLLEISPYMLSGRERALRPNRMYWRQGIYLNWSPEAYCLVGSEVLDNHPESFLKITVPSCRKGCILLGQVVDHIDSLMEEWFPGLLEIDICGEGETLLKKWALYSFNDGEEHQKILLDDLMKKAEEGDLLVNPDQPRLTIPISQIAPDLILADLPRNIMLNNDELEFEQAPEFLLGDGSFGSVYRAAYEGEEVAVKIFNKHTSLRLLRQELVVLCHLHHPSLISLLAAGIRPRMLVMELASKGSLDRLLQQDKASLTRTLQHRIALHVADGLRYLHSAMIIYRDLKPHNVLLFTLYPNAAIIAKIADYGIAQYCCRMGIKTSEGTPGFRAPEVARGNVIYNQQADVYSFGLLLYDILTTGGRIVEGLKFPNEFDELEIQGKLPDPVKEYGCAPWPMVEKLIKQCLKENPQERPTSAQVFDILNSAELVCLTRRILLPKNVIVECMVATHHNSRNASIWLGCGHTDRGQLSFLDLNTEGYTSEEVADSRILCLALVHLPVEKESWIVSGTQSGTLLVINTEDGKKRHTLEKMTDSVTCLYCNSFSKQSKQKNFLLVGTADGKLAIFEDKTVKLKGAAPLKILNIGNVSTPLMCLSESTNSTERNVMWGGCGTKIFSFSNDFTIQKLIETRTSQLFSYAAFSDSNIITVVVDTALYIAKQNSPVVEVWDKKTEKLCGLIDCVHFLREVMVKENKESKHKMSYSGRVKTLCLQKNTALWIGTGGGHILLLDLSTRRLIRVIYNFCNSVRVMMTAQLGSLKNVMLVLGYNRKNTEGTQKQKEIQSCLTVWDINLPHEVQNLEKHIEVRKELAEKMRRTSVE

**Q.** Which IC50 does the source give for `CS(=O)(=O)c1ccc(-c2ccc3c(N)c(C(N)=O)nnc3c2)cc1` [Compound 1-5, 4-amino-7-(4-(methylsulfonyl)phenyl)cinnoline-3-carboxamide] here?
**A.** The IC50 was 140 nM.

**Q.** How did the IC50 turn out when `NC(=O)c1nnc2cc(-c3cccc(N4CCOCC4)c3)ccc2c1N` [Compound 1-6, 4-amino-7-(3-morpholinophenyl)cinnoline-3-carboxamide] was run?
**A.** Its IC50 is 120 nM.

**Q.** Which IC50 does the source give for `CN(C)c1ccc(-c2ccc3c(N)c(C(N)=O)nnc3c2)cc1` [Compound 1-7, 4-amino-7-(4-(dimethylamino)phenyl)cinnoline-3-carboxamide] here?
**A.** The IC50 was 130 nM.

**Q.** How did the IC50 turn out when `CN(C)c1cccc(-c2ccc3c(N)c(C(N)=O)nnc3c2)c1` [Compound 1-8, 4-amino-7-(3-(dimethylamino)phenyl)cinnoline-3-carboxamide] was run?
**A.** The IC50 was 250 nM.

**Q.** Which IC50 does the source give for `NC(=O)c1nnc2cc(-c3ccc(N4CCOCC4)cc3)ccc2c1N` [Compound 1-9, 4-amino-7-(4-morpholinophenyl)cinnoline-3-carboxamide] here?
**A.** The IC50 was 29700 nM.

**Q.** Which IC50 does the source give for `CC(C)(C)c1ccc2nnc(C(N)=O)c(N)c2c1` [Compound 1-186, 4-amino-6-tert-butylcinnoline-3-carboxamide] here?
**A.** The IC50 was 4000 nM.

**Q.** For `CC(C)Nc1c(C(N)=O)nnc2cc(-c3ccc(S(C)(=O)=O)cc3)ccc12` [Compound 2-17, 4-(isopropylamino)-7-(4-(methylsulfonyl)phenyl)cinnoline-3-carboxamide], which IC50 is on record?
**A.** The IC50 was 15 nM.

**Q.** How did the IC50 turn out when `CC(C)Nc1c(C#N)nnc2cc(-c3ccc(S(C)(=O)=O)cc3)ccc12` [Compound 2-18, 4-(isopropylamino)-7-(4-(methylsulfonyl)phenyl)cinnoline-3-carbonitrile] was run?
**A.** The IC50 was 620 nM.

**Q.** How did the IC50 turn out when `CS(=O)(=O)c1ccc(-c2ccc3c(NC4CCC4)c(C(N)=O)nnc3c2)cc1` [Compound 2-19, 4-(cyclobutylamino)-7-(4-(methylsulfonyl)phenyl)cinnoline-3-carboxamide] was run?
**A.** The IC50 was 10 nM.

**Q.** For `CN1CCC(Nc2c(C(N)=O)nnc3cc(-c4ccc(S(C)(=O)=O)cc4)ccc23)CC1` [Compound 2-21, 4-(1-methylpiperidin-4-ylamino)-7-(4-(methylsulfonyl)phenyl)cinnoline-3-carboxamide], which IC50 is on record?
**A.** The IC50 was 180 nM.

**Q.** Which IC50 does the source give for `CS(=O)(=O)c1ccc(-c2ccc3c(NC4CCOC4)c(C(N)=O)nnc3c2)cc1` (centres unmarked) [Compound 2-23, 7-(4-(methylsulfonyl)phenyl)-4-(tetrahydrofuran-3-ylamino)cinnoline-3-carboxamide] here?
**A.** The IC50 was 17 nM.

**Q.** With `CS(=O)(=O)c1ccc(-c2ccc3c(NC4CCOCC4)c(C(N)=O)nnc3c2)cc1` [Compound 2-25, 7-(4-(methylsulfonyl)phenyl)-4-(tetrahydro-2H-pyran-4-ylamino)cinnoline-3-carboxamide] as the compound, how does the IC50 read?
**A.** The IC50 was 23 nM.

**Q.** Which IC50 does the source give for `CS(=O)(=O)c1ccc(-c2ccc3c(NC4COC4)c(C(N)=O)nnc3c2)cc1` [Compound 2-27, 7-(4-(methylsulfonyl)phenyl)-4-(oxetan-3-ylamino)cinnoline-3-carboxamide] here?
**A.** Its IC50 is 180 nM.

**Q.** Which IC50 does the source give for `CS(=O)(=O)c1ccc(-c2ccc3c(NC4CC4)c(C(N)=O)nnc3c2)cc1` [Compound 2-29, 4-(cyclopropylamino)-7-(4-(methylsulfonyl)phenyl)cinnoline-3-carboxamide] here?
**A.** Its IC50 is 47 nM.

**Q.** Which IC50 does the source give for `CC(C)Nc1c(C(N)=O)nnc2cc(-c3cncnc3)ccc12` [Compound 2-33, 4-(isopropylamino)-7-(pyrimidin-5-yl)cinnoline-3-carboxamide] here?
**A.** The IC50 was 210 nM.

**Q.** For `CC(C)Nc1c(C(N)=O)nnc2cc(-c3cnn(C)c3)ccc12` [Compound 2-35, 4-(isopropylamino)-7-(1-methyl-1H-pyrazol-4-yl)cinnoline-3-carboxamide], which IC50 is on record?
**A.** Its IC50 is 9 nM.

**Q.** Which IC50 does the source give for `CC[C@@H](C)Nc1c(C(N)=O)nnc2cc(-c3ccc(S(C)(=O)=O)cc3)ccc12` [Compound 2-37, (R)-(sec-butylamino)-7-(4-(methylsulfonyl)phenyl)cinnoline-3-carboxamide] here?
**A.** Its IC50 is under 6 nM.

**Q.** How did the IC50 turn out when `CC[C@@H](C)Nc1c(C#N)nnc2cc(-c3ccc(S(C)(=O)=O)cc3)ccc12` [Compound 2-38, (R)-4-(sec-butylamino)-7-(4-(methylsulfonyl)phenyl)cinnoline-3-carbonitrile] was run?
**A.** The IC50 was 550 nM.

**Q.** With `C[C@@H](Nc1c(C(N)=O)nnc2cc(-c3ccc(S(C)(=O)=O)cc3)ccc12)C1CC1` [Compound 2-41, (R)-4-(1-cyclopropylethylamino)-7-(4-(methylsulfonyl)phenyl)cinnoline-3-carboxamide] as the compound, how does the IC50 read?
**A.** Its IC50 is under 6 nM.

**Q.** With `C[C@@H](Nc1c(C#N)nnc2cc(-c3ccc(S(C)(=O)=O)cc3)ccc12)C1CC1` [Compound 2-42, (R)-4-(1-cyclopropylethylamino)-7-(4-(methylsulfonyl)phenyl)cinnoline-3-carbonitrile] as the compound, how does the IC50 read?
**A.** The IC50 was 560 nM.

**Q.** For `CC(C)Nc1c(C(N)=O)nnc2cc(-c3cccc(F)c3)ccc12` [Compound 2-45, 7-(3-fluorophenyl)-4-(isopropylamino)cinnoline-3-carboxamide], which IC50 is on record?
**A.** The IC50 was 84 nM.

**Q.** With `CC(C)Nc1c(C(N)=O)nnc2cc(-c3ccccc3F)ccc12` [Compound 2-47, 7-(2-fluorophenyl)-4-(isopropylamino)cinnoline-3-carboxamide] as the compound, how does the IC50 read?
**A.** Its IC50 is 210 nM.

**Q.** For `CC(C)Nc1c(C(N)=O)nnc2cc(-c3ccc(N4CCOCC4)cc3)ccc12` [Compound 2-49, 4-(isopropylamino)-7-(4-morpholinophenyl)cinnoline-3-carboxamide], which IC50 is on record?
**A.** Its IC50 is 9 nM.

**Q.** How did the IC50 turn out when `CC(C)Nc1c(C(N)=O)nnc2cc(-c3cccc(N4CCOCC4)c3)ccc12` [Compound 2-51, 4-(isopropylamino)-7-(3-morpholinophenyl)cinnoline-3-carboxamide] was run?
**A.** The IC50 was 17 nM.

**Q.** Which IC50 does the source give for `CC(C)Nc1c(C(N)=O)nnc2cc(-c3cn[nH]c3)ccc12` [Compound 2-53, 4-(isopropylamino)-7-(1H-pyrazol-4-yl)cinnoline-3-carboxamide] here?
**A.** The IC50 was 9 nM.

**Q.** `CC(C)Nc1c(C(N)=O)nnc2cc(-c3cccnc3)ccc12` [Compound 2-57, 4-(isopropylamino)-7-(pyridin-3-yl)cinnoline-3-carboxamide] was tested. Which IC50 did it give?
**A.** The IC50 was 33 nM.

**Q.** `CS(=O)(=O)c1ccc(-c2ccc3c(NC45CC6CC(CC(C6)C4)C5)c(C(N)=O)nnc3c2)cc1` [Compound 2-88, 4-(1-adamantylamino)-7-(4-(methylsulfonyl)phenyl)cinnoline-3-carboxamide] was tested. Which IC50 did it give?
**A.** The IC50 was 420 nM.

**Q.** Which IC50 does the source give for `CS(=O)(=O)c1ccc(-c2ccc3c(NCC4CCOCC4)c(C(N)=O)nnc3c2)cc1` [Compound 2-89, 7-(4-(methylsulfonyl)phenyl)-4-((tetrahydro-2H-pyran-4-yl)methylamino)cinnoline-3-carboxamide] here?
**A.** Its IC50 is 110 nM.

**Q.** With `C[C@@H](Nc1c(C(N)=O)nnc2cc(-c3ccc(S(C)(=O)=O)cc3)ccc12)C1CCOCC1` [Compound 2-90, (R)-7-(4-(methylsulfonyl)phenyl)-4-(1-(tetrahydro-2H-pyran-4-yl)ethylamino)cinnoline-3-carboxamide] as the compound, how does the IC50 read?
**A.** Its IC50 is 63 nM.

**Q.** `CC(C)(C)Nc1c(C(N)=O)nnc2cc(-c3ccc(S(C)(=O)=O)cc3)ccc12` [Compound 2-91, 4-(tert-butylamino)-7-(4-(methylsulfonyl)phenyl)cinnoline-3-carboxamide] was tested. Which IC50 did it give?
**A.** Its IC50 is 45 nM.

**Q.** With `CS(=O)(=O)c1ccc(-c2ccc3c(NCC4CC4)c(C(N)=O)nnc3c2)cc1` [Compound 2-92] as the compound, how does the IC50 read?
**A.** The IC50 was 17 nM.

**Q.** Which IC50 does the source give for `CCNc1c(C(N)=O)nnc2cc(-c3ccc(S(C)(=O)=O)cc3)ccc12` [Compound 2-93, 4-(ethylamino)-7-(4-(methylsulfonyl)phenyl)cinnoline-3-carboxamide] here?
**A.** Its IC50 is 46 nM.
